Test results from patent US11065257B2, “Substituted pyrazoloazepin-4-ones and their use as phosphodiesterase inhibitors” (LEO Pharma A/S, priority 2016, dated 2021).

What follows are molecules tested against T1, human PDE4D catalytic domain (Homo sapiens, UniProt Q08499) (assay: PDE4 Assay). Conditions: human PDE4D catalytic domain (S380-L740), TR-FRET with FAM-cAMP; expressed as a range of IC50; read-out: PDE4 Potency Range.
T1 construct: UniProt no; Q08499 [S380-L740]
T1 sequence (Q08499 380-740): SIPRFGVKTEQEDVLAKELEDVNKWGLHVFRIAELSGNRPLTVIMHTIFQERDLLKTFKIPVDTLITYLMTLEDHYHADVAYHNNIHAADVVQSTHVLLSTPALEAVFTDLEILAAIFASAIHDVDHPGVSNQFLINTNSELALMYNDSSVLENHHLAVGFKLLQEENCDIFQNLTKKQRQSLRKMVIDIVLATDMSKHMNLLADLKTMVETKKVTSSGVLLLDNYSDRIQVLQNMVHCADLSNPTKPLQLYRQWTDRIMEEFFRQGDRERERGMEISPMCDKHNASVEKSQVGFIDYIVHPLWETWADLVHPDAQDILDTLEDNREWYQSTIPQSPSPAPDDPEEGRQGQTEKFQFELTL
Assay type: biochemical
Method in brief: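 Catalytic domain (S380-L740) was incubated with unlabelled cAMP plus FAM-cAMP and titrated compound, then stopped with Tb-donor nanoparticles binding AMP phospho groups. Generated AMP was read by time-resolved FRET; IC50 was reported as 50% inhibition of substrate cleavage relative to controls, expressed as nM ranges.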
`CCc1nn(CCOC(=O)c2cc(C)n(C)n2)c2c1C(=O)NCC1(CCOCC1)C2` [Example 10, 2-(3-ethyl-4-oxo-spiro[6,8-dihydro-5H-pyrazolo[4,3-c]azepine-7,4′-tetrahydropyran]-1-yl)ethyl 1,5-dimethylpyrazole-3-carboxylate] was tested, and the IC50 was > 500 nM.
With `CCc1nn(CCCOC(=O)c2cc(C)n[nH]2)c2c1C(=O)NCC1(CCOCC1)C2` [Example 33, 3-(3-ethyl-4-oxo-spiro[6,8-dihydro-5H-pyrazolo[4,3-c]azepine-7,4′-tetrahydropyran]-1-yl)propyl 5-methyl-1H-pyrazole-3-carboxylate] the IC50 was 100 to 500 nM.
In the case of `CCc1nn(CCOC(=O)c2cnc(C)o2)c2c1C(=O)NCC1(CCOCC1)C2` [Example 6, 2-(3-ethyl-4-oxo-spiro[6,8-dihydro-5H-pyrazolo[4,3-c]azepine-7,4′-tetrahydropyran]-1-yl)ethyl 2-methyloxazole-5-carboxylate], the IC50 is reported as > 500 nM.
In the case of `CCc1nn(CCCOC(=O)c2cnsc2)c2c1C(=O)NCC1(CCOCC1)C2` [Example 55, 3-(3-ethyl-4-oxo-spiro[6,8-dihydro-5H-pyrazolo[4,3-c]azepine-7,4′-tetrahydropyran]-1-yl)propyl isothiazole-4-carboxylate], the IC50 is reported as 100 to 500 nM.
`CCc1nn(CCCOC(=O)c2cccnc2C)c2c1C(=O)NCC1(CCOCC1)C2` [Example 65, 3-(3-ethyl-4-oxo-spiro[6,8-dihydro-5H-pyrazolo[4,3-c]azepine-7,4′-tetrahydropyran]-1-yl)propyl 2-methylpyridine-3-carboxylate] showed an IC50 of 100 to 500 nM.
Work on `CCc1nn(CCCOC(=O)C2CCCN(C(=O)N(C)C)C2)c2c1C(=O)NCC1(CCOCC1)C2` (stereo not shown) [Example 106, 3-(3-ethyl-4-oxo-spiro[6,8-dihydro-5H-pyrazolo[4,3-c]azepine-7,4′-tetrahydropyran]-1-yl)propyl 1-(dimethylcarbamoyl)piperidine-3-carboxylate] yielded an IC50 of 100 to 500 nM.
Work on `CCc1nn(CCCOC(=O)c2cnnn2C)c2c1C(=O)NCC1(CCOCC1)C2` [Example 49, 3-(3-ethyl-4-oxo-spiro[6,8-dihydro-5H-pyrazolo[4,3-c]azepine-7,4′-tetrahydropyran]-1-yl)propyl 3-methyltriazole-4-carboxylate] yielded an IC50 of 100 to 500 nM.
`CCc1nn(CCOC(=O)c2cc(C)on2)c2c1C(=O)NCC1(CCOCC1)C2` [Example 4, 2-(3-ethyl-4-oxo-spiro[6,8-dihydro-5H-pyrazolo[4,3-c]azepine-7,4′-tetrahydropyran]-1-yl)ethyl 5-methylisoxazole-3-carboxylate] was tested, and the IC50 was 100 to 500 nM.
`CCc1nn(CCCOC(=O)c2sc(OC)nc2C)c2c1C(=O)NCC1(CCOCC1)C2` [Example 100, 3-(3-ethyl-4-oxo-spiro[6,8-dihydro-5H-pyrazolo[4,3-c]azepine-7,4′-tetrahydropyran]-1-yl)propyl 2-methoxy-4-methyl-thiazole-5-carboxylate] showed an IC50 of 100 to 500 nM.
For `CCc1nn(CCCOC(=O)c2cc(O)no2)c2c1C(=O)NCC1(CCOCC1)C2` [Example 52, 3-(3-ethyl-4-oxo-spiro[6,8-dihydro-5H-pyrazolo[4,3-c]azepine-7,4′-tetrahydropyran]-1-yl)propyl 3-hydroxyisoxazole-5-carboxylate], the IC50 was 100 to 500 nM.
In the case of `CCc1nn(CCCOC(=O)c2ccsn2)c2c1C(=O)NCC1(CCOCC1)C2` [Example 53, 3-(3-ethyl-4-oxo-spiro[6,8-dihydro-5H-pyrazolo[4,3-c]azepine-7,4′-tetrahydropyran]-1-yl)propyl isothiazole-3-carboxylate], the IC50 is reported as 100 to 500 nM.
Molecule `CCc1nn(CCOC(=O)c2ccno2)c2c1C(=O)NCC1(CCOCC1)C2` [Example 1, 2-(3-ethyl-4-oxo-spiro[6,8-dihydro-5H-pyrazolo[4,3-c]azepine-7,4′-tetrahydropyran]-1-yl)ethyl isoxazole-5-carboxylate] has an IC50 of 100 to 500 nM.
In the case of `CCc1nn(CCCOC(=O)c2cncn2C)c2c1C(=O)NCC1(CCOCC1)C2` [Example 41, 3-(3-ethyl-4-oxo-spiro[6,8-dihydro-5H-pyrazolo[4,3-c]azepine-7,4′-tetrahydropyran]-1-yl)propyl 3-methylimidazole-4-carboxylate], the IC50 is reported as 100 to 500 nM.
For `CCc1nn(CCCOC(=O)c2coc(C3CC3)n2)c2c1C(=O)NCC1(CCOCC1)C2` [Example 89, 3-(3-ethyl-4-oxo-spiro[6,8-dihydro-5H-pyrazolo[4,3-c]azepine-7,4′-tetrahydropyran]-1-yl)propyl 2-cyclopropyloxazole-4-carboxylate], the IC50 was 100 to 500 nM.
Work on `CCc1nn(CC(C)(C)COC(=O)C2CCOCC2)c2c1C(=O)NCC1(CCOCC1)C2` [Example 111, [3-(3-ethyl-4-oxo-spiro[6,8-dihydro-5H-pyrazolo[4,3-c]azepine-7,4′-tetrahydropyran]-1-yl)-2,2-dimethyl-propyl] tetrahydropyran-4-carboxylate] yielded an IC50 of 100 to 500 nM.
`CCc1nn(CCCOC(=O)c2nccn2C)c2c1C(=O)NCC1(CCOCC1)C2` [Example 40, 3-(3-ethyl-4-oxo-spiro[6,8-dihydro-5H-pyrazolo[4,3-c]azepine-7,4′-tetrahydropyran]-1-yl)propyl 1-methylimidazole-2-carboxylate] was tested, and the IC50 was 100 to 500 nM.
`CCc1nn(CCCOC(=O)c2ccon2)c2c1C(=O)NCC1(CCOCC1)C2` [Example 21, 3-(3-ethyl-4-oxo-spiro[6,8-dihydro-5H-pyrazolo[4,3-c]azepine-7,4′-tetrahydropyran]-1-yl)propyl isoxazole-3-carboxylate] was tested, and the IC50 was > 500 nM.
In the case of `CCc1nn(CCCOC(=O)C2CCN(C(C)=O)CC2)c2c1C(=O)NCC1(CCOCC1)C2` [Example 99, 3-(3-ethyl-4-oxo-spiro[6,8-dihydro-5H-pyrazolo[4,3-c]azepine-7,4′-tetrahydropyran]-1-yl)propyl 1-acetylpiperidine-4-carboxylate], the IC50 is reported as > 500 nM.
`CCc1nn(CCCOC(=O)c2cnn(C)c2)c2c1C(=O)NCC1(CCOCC1)C2` [Example 38, 3-(3-ethyl-4-oxo-spiro[6,8-dihydro-5H-pyrazolo[4,3-c]azepine-7,4′-tetrahydropyran]-1-yl)propyl 1-methylpyrazole-4-carboxylate] was tested, and the IC50 was 100 to 500 nM.
`CCc1nn(CCCOC(=O)c2nonc2C)c2c1C(=O)NCC1(CCOCC1)C2` [Example 51, 3-(3-ethyl-4-oxo-spiro[6,8-dihydro-5H-pyrazolo[4,3-c]azepine-7,4′-tetrahydropyran]-1-yl)propyl 4-methyl-1,2,5-oxadiazole-3-carboxylate] gave an IC50 of 100 to 500 nM.
With `CCc1nn(CCCOC(=O)C2CCCSC2)c2c1C(=O)NCC1(CCOCC1)C2` (stereo not shown) [Example 84, 3-(3-ethyl-4-oxo-spiro[6,8-dihydro-5H-pyrazolo[4,3-c]azepine-7,4′-tetrahydropyran]-1-yl)propyl tetrahydrothiopyran-3-carboxylate] the IC50 was 100 to 500 nM.
In the case of `CCc1nn(CCCOC(=O)c2cc(C)nn2CC)c2c1C(=O)NCC1(CCOCC1)C2` [Example 90, 3-(3-ethyl-4-oxo-spiro[6,8-dihydro-5H-pyrazolo[4,3-c]azepine-7,4′-tetrahydropyran]-1-yl)propyl 2-ethyl-5-methyl-pyrazole-3-carboxylate], the IC50 is reported as 100 to 500 nM.
With `CCc1nn(CCCOC(=O)c2nc(C)oc2C)c2c1C(=O)NCC1(CCOCC1)C2` [Example 76, 3-(3-ethyl-4-oxo-spiro[6,8-dihydro-5H-pyrazolo[4,3-c]azepine-7,4′-tetrahydropyran]-1-yl)propyl 2,5-dimethyloxazole-4-carboxylate] the IC50 was > 500 nM.
For `CCc1nn(CCCOC(=O)c2cnc(C)n2C)c2c1C(=O)NCC1(CCOCC1)C2` [Example 73, 3-(3-ethyl-4-oxo-spiro[6,8-dihydro-5H-pyrazolo[4,3-c]azepine-7,4′-tetrahydropyran]-1-yl)propyl 2,3-dimethylimidazole-4-carboxylate], the IC50 was 100 to 500 nM.
For `CCc1nn(CCCOC(=O)c2conc2C)c2c1C(=O)NCC1(CCOCC1)C2` [Example 45, 3-(3-ethyl-4-oxo-spiro[6,8-dihydro-5H-pyrazolo[4,3-c]azepine-7,4′-tetrahydropyran]-1-yl)propyl 3-methylisoxazole-4-carboxylate], the IC50 was 100 to 500 nM.
